For 24 compounds, IC50 results are on record in patent US9718774B2, “Indole carboxamide derivatives as P2X7 receptor antagonist” (ACTELION PHARMACEUTICALS LTD, priority 2012, dated 2017).

SMILES strings stand for the structures.

For the assay, the target named is T1, human recombinant P2X7 receptor (Homo sapiens, UniProt Q99572).
T1 construct: expressed in transfected cells
T1 sequence (Q99572 1-595): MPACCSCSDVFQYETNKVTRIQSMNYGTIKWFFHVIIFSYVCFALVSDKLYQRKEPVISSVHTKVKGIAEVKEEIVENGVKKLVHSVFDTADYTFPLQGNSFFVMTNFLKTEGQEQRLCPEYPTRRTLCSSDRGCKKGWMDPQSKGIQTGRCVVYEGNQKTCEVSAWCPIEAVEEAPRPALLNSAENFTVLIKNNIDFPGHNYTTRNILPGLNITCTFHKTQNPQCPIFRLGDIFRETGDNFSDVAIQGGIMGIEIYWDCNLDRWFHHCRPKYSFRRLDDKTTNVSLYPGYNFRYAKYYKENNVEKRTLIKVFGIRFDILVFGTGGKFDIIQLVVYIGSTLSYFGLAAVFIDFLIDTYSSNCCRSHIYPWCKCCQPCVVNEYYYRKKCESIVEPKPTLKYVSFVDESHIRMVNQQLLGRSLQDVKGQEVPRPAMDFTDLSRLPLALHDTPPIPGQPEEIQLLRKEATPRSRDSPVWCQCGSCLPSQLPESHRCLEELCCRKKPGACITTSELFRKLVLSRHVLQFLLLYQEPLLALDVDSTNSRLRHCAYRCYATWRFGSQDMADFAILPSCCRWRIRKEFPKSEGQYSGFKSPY
The assay is described as follows: YO-PRO assay: P2X7 receptor antagonistic activity in HEK cells stably expressing P2X7. The format is cell-based. The settings on record: antagonistic activity with respect to the P2X7 receptor, read-out: IC50. How it is done: The P2X7 receptor antagonistic activity of the compounds of formula (I) is determined in accordance with the following experimental method.
Cell Line Generation and YO-PRO Assay
Cell line generation was performed in general according to established molecular cloning protocols. Specifically, RNA was extracted from human whole blood using the Qiagen RNeasy kit (Qiagen, CH) according to the manufacturer's instructions. Subsequently cDNA was made (Superscript II, Invitrogen AG, CH) and the human P2X7 gene (genbank ref. BC011913) was amplified with the following primers: […] and […]. The amplified sequence was subsequently ligated into a pcDNA3.1 (+) NotI, NheI digested plasmid. Human embryonic kidney (HEK) cells (ATCC CRL—1573, Manassas, Va., USA) were transfected with the pcDNA3.1 (+).hP2X7 plasmid using lipofectamine 2000 (Invitrogen AG, CH) according to the manufacturer's instructions. Following a 24 h exposure to DNA, cells were trypsinized and re-seeded at low density in the presence of 250 μg Geneticin. Geneticin resistant cells were then selected during two consecutive rounds of cloning by serial limiting dilution with visual inspection. Individual clones were screened for P2X7 expression by applying ATP and recording the resultant uptake of YO-PRO1. Specific cell clones were chosen based on RNA and protein expression. HEK cells stably expressing P2X7 were used to screen drugs using the YO-PRO1 assay. Cells were grown to confluency in adherent culture at 37° C. in a humidified 5% CO2 incubator (split 1/5 every 3-4 days with DMEM, 10% FCS, 1% Penicillin/Streptomycin, 250 μg/ml Geneticin). Adherent cells were detached by incubation with Trypsine (1 ml per 165 cm^2 dish) for 2 minutes, then washed off with 10 ml PBS (without Mg^2+ and Ca^2+), and resuspended in DMEM, 10% FCS, 1% Penicillin/Streptomycin, no Geneticin. 10′000 cells per well (48 hours before the assay) or 25′000 cells per well (Vi-cell XR (Beckman Coulter) (24 hours before the assay) in 50 μl full medium were seeded on 384-well black-wall, clear bottom plates, that were coated before with 10 μl per well Poly-L-Lysine, incubated for 30-60 minutes at 37° C. and washed once with PBS. Medium was removed from cells and 50 μl of assay buffer containing 0.5 μM YO-PRO-1 was added into the wells. Solutions of antagonist compounds were prepared by serial dilutions of a 10 mM DMSO solution of the antagonist into PBS using a BioMek (Beckman Coulter). Each concentration was performed in duplicate. For IC50 measurements 10 concentration points were measured (10 μM being the highest concentration followed by 9 serial dilution steps 1/3). The cells were incubated with the antagonists of the present invention together with ATP at a final concentration of 250 μM for 90 minutes. During this time period, four time points were taken. Each time point comprised the average of several measurements made within a few seconds. Fluorescence was measured in the FLIPR tetra (Molecular Devices) using the filters appropriate for YO-PRO-1 fluorescence (excitation 485/20, emission 530/25). The FLIPR tetra was equipped with Molecular Devices Screen Works system control software to define and run experimental protocols. […] For IC50 measurements the maximum intensity is plotted against the concentration of compound to determine IC50 values.
Consider `Cc1noc(C)c1C(CNC(=O)c1ccc2[nH]ccc2c1Cl)N1CCOCC1` (racemic) [Example 53, rac-4-Chloro-1H-indole-5-carboxylic acid [2-(3,5-dimethyl-isoxazol-4-yl)-2-morpholin-4-yl-ethyl]-amide], for which the IC50 (usually the concentration needed to halve the response being measured) was 1990 nM.

In the case of `Cc1noc(C)c1C(CNC(=O)c1ccc2[nH]ccc2c1Cl)N1CCCCC1` (racemic) [Example 54, rac-4-Chloro-1H-indole-5-carboxylic acid [2-(3,5-dimethyl-isoxazol-4-yl)-2-piperidin-1-yl-ethyl]-amide], the half-inhibitory concentration (IC50) is 1850 nM. On to `Cc1ccc(C(CNC(=O)c2ccc3[nH]ccc3c2Cl)N2CCCCC2)cc1` (racemic) [Example 55, rac-4-Chloro-1H-indole-5-carboxylic acid (2-piperidin-1-yl-2-p-tolyl-ethyl)-amide], for which the IC50 was 774 nM.

With `O=C(NCC(c1ccc(Cl)nc1)N1CCCCC1)c1ccc2[nH]ccc2c1Cl` (racemic) [Example 56, rac-4-Chloro-1H-indole-5-carboxylic acid [2-(6-chloro-pyridin-3-yl)-2-piperidin-1-yl-ethyl]-amide], the IC50 was 8.8 nM. With `O=C(NCC(c1ccc(Oc2ccccc2)cc1)N1CCCCC1)c1ccc2[nH]ccc2c1Cl` (racemic) [Example 57, rac-4-Chloro-1H-indole-5-carboxylic acid [2-(4-phenoxy-phenyl)-2-piperidin-1-yl-ethyl]-amide], the IC50 amounted to 187 nM. Consider `O=C(NCC(c1ccc(Oc2ccccc2)cc1)N1CCOCC1)c1ccc2[nH]ccc2c1Cl` (racemic) [Example 58, rac-4-Chloro-1H-indole-5-carboxylic acid [2-morpholin-4-yl-2-(4-phenoxy-phenyl)-ethyl]-amide], for which the IC50 came to 102 nM. The same measure for `COc1ccc(C(CNC(=O)c2ccc3[nH]ccc3c2Cl)N2CCOCC2)cc1` (racemic) [Example 59, rac-4-Chloro-1H-indole-5-carboxylic acid [2-(4-methoxy-phenyl)-2-morpholin-4-yl-ethyl]-amide]: 55 nM. With `Cc1cnc(C(CNC(=O)c2ccc3[nH]ccc3c2Cl)N2CCCCC2)cn1` (racemic) [Example 60, rac-4-Chloro-1H-indole-5-carboxylic acid [2-(5-methyl-pyrazin-2-yl)-2-piperidin-1-yl-ethyl]-amide], the half-inhibitory concentration (IC50) was determined as 232 nM. In the case of `O=C(NCC(c1ccns1)N1CCCCC1)c1ccc2[nH]ccc2c1Cl` (racemic) [Example 61, rac-4-Chloro-1H-indole-5-carboxylic acid (2-isothiazol-5-yl-2-piperidin-1-yl-ethyl)-amide] it was 15 nM; in that of `O=C(NCC(c1cncs1)N1CCCCC1)c1ccc2[nH]ccc2c1Cl` (racemic) [Example 62, rac-4-Chloro-1H-indole-5-carboxylic acid (2-piperidin-1-yl-2-thiazol-5-yl-ethyl)-amide], 48 nM. As for `Cc1cnc(C(CNC(=O)c2ccc3[nH]ccc3c2Cl)N2CCOCC2)cn1` (racemic) [Example 63, rac-4-Chloro-1H-indole-5-carboxylic acid [2-(5-methyl-pyrazin-2-yl)-2-morpholin-4-yl-ethyl]-amide], the concentration for half-maximal inhibition (IC50) came out at 257 nM. With `O=C(NCC(c1cncs1)N1CCOCC1)c1ccc2[nH]ccc2c1Cl` (racemic) [Example 64, rac-4-Chloro-1H-indole-5-carboxylic acid (2-morpholin-4-yl-2-thiazol-5-yl-ethyl)-amide], the IC50 is 53 nM. On to `O=C(NCC(c1ccc(Cl)nc1)C1CCCCC1)c1ccc2[nH]ccc2c1Cl` (racemic) [Example 65, rac-4-Chloro-1H-indole-5-carboxylic acid [2-(6-chloro-pyridin-3-yl)-2-cyclohexyl-ethyl]-amide], for which the half-maximal inhibitory concentration (IC50) was 76 nM. Turning to `CC(C)CC(CNC(=O)c1ccc2[nH]ccc2c1Cl)c1ccc(Cl)nc1` (racemic) [Example 66, rac-4-Chloro-1H-indole-5-carboxylic acid [2-(6-chloro-pyridin-3-yl)-4-methyl-pentyl]-amide], the IC50 amounted to 32 nM. As for `CCOC(CNC(=O)c1ccc2[nH]ccc2c1Cl)c1cnc(C)nc1` (racemic) [Example 67, rac-4-Chloro-1H-indole-5-carboxylic acid [2-ethoxy-2-(2-methyl-pyrimidin-5-yl)-ethyl]-amide], the IC50 was determined as 636 nM. With `Cc1ncc(C(CNC(=O)c2ccc3[nH]ccc3c2Cl)OC2CCCCC2)cn1` (racemic) [Example 69, rac-4-Chloro-1H-indole-5-carboxylic acid [2-cyclohexyloxy-2-(2-methyl-pyrimidin-5-yl)-ethyl]-amide], the 50% inhibitory concentration (IC50) came out at 61 nM. The same measure for `Cc1ncc(C(CNC(=O)c2ccc3[nH]ccc3c2Cl)OC2CCOCC2)cn1` (racemic) [Example 70, rac-4-Chloro-1H-indole-5-carboxylic acid [2-(2-methyl-pyrimidin-5-yl)-2-(tetrahydro-pyran-4-yloxy)-ethyl]-amide]: 91 nM; for `CCC(CC)OC(CNC(=O)c1ccc2[nH]ccc2c1Cl)c1cnc(C)nc1` (racemic) [Example 71, rac-4-Chloro-1H-indole-5-carboxylic acid [2-(1-ethyl-propoxy)-2-(2-methyl-pyrimidin-5-yl)-ethyl]-amide]: 22 nM; for `Cc1ncc(C(CNC(=O)c2ccc3[nH]c(C)cc3c2Cl)N2CCOCC2)cn1` (racemic) [Example 72, rac-4-Chloro-2-methyl-1H-indole-5-carboxylic acid [2-(2-methyl-pyrimidin-5-yl)-2-morpholin-4-yl-ethyl]-amide]: 463 nM. Turning to `O=C(NCC(c1cccnn1)N1CCCCC1)c1ccc2[nH]ccc2c1Cl` (racemic) [Example 73, rac-4-Chloro-1H-indole-5-carboxylic acid (2-piperidin-1-yl-2-pyridazin-3-yl-ethyl)-amide], the IC50 is 1010 nM.

As for `O=C(NCC(c1ccnc(O)c1)N1CCCCC1)c1ccc2[nH]ccc2c1Cl` (racemic) [Example 74, rac-4-Chloro-1H-indole-5-carboxylic acid [2-(2-hydroxypyridin-4-yl)-2-piperidin-1-yl-ethyl]-amide], the IC50 was determined as 193 nM. Turning to `Cc1ncc(C(CNC(=O)c2ccc3[nH]ccc3c2Cl)N2CCC(C(=O)OC(C)(C)C)CC2)cn1` (racemic) [Example 75, rac-1-[2-[(4-Chloro-1H-indole-5-carbonyl)-amino]-1-(2-methyl-pyrimidin-5-yl)-ethyl]-piperidine-4-carboxylic acid tert-butyl ester], the concentration for half-maximal inhibition (IC50) amounted to 258 nM. With `Cc1ncc(C(CNC(=O)c2ccc3[nH]ccc3c2Cl)N2CCC(C)CC2)cn1` (racemic) [Example 76, rac-4-Chloro-1H-indole-5-carboxylic acid [2-(4-methyl-piperidin-1-yl)-2-(2-methyl-pyrimidin-5-yl)-ethyl]-amide], the half-maximal inhibitory concentration (IC50) amounted to 348 nM. Take `Cc1ncc(C(CNC(=O)c2ccc3[nH]ccc3c2Cl)N2CCC(F)CC2)cn1` (racemic) [Example 78, rac-4-Chloro-1H-indole-5-carboxylic acid [2-(4-fluoro-piperidin-1-yl)-2-(2-methyl-pyrimidin-5-yl)-ethyl]-amide]: the IC50 was 12 nM.
